Measurements taken from patent US20230257771A1, “AAV DELIVERY SYSTEM FOR LUNG CANCER TREATMENT” (Christiana Care Health Services, Inc., priority 2020, published 2023).
“Also recorded” adds a separate entry of the source.

Experiments:
[1] = test system: 2-11 A549 cells (NRF2 knockout); assay: MTS cell proliferation assay after drug exposure, NRF2 knockout A549 (2-11); assay type: cell-based, human; conditions: 72 hours; for chemosensitivity (MTS): increasing dosages of single drug
Description: (§1) Cell viability was evaluated using the CellTiter 96 Aqueous Non-Radioactive Cell Proliferation Assay (Promega, Madison, WI). A549 cell lines were plated at 2×10^3 cells per well and allowed to culture for 24 hours. The cell media was then aspirated, the cells washed with PBS, then exposed to the MTS reagent for 3 hours. After 3 hours of MTS bio-reduction by proliferating cells, the formazan product’s absorbance was measured using a 450 nm filter on an Infinite 2000 PRO microplate reader (Tecan, Mannadorf, Switzerland). Cell viability after drug exposure was evaluated using the CellTiter 96 Aqueous Non-Radioactive Cell Proliferation Assay. A549 cell lines were plated at 2×10^3 cells per well and allowed to culture for 24 hours. The cells were then treated with cisplatin, carboplatin, or a combination of cisplatin and vinorelbine for three days. The cell media was then aspirated, the cells washed with PBS, then exposed to the MTS reagent for 3 hours. After 3 hours of MTS bio-reduction by proliferating cells, the formazan product’s absorbance was measured using a 450 nm filter on an Infinite 2000 PRO microplate reader.

[2] = test system: NRF2 knockout A549 (2-11) tumors; assay: Xenograft mouse model, NRF2 knockout A549 (2-11) tumors; assay type: in vivo
Description: (§2) The animal trials presented herein were carried out at Washington Biotech Inc., Simpsonville Maryland, under animal use and care protocol (SOP 505, SOP 520, SOP 522, SOP 1610, SOP1650) approved by the animal care and use committee of Washington Biotechnology Inc. (AAALAC accredited Animal Welfare Assurance number A4192-01). The human xenograft model was established using methodology reported previously. Kellar et al., Biomed Res. Int. 2015, 1-17 (2015). Female athymic nude mice (Envigo, 5-6 weeks old) were used in this study. Approximately 5 × 10^6 cells (wild type A549 or homozygous knockout (clonal expansion 2-11)) suspended in PBS with 20% Matrigel were injected subcutaneously into right flank of each mouse. Tumor volume was measured three times a week with a digital caliper once palpable, and calculated using the formula, tumor size = ab^2/2, where ‘a’ is the larger and ‘b’ is the smaller of the two dimensions. When tumors grew up to a mean volume of around 100 mm^3, A549 tumor bearing mice or A549-2-11 tumor bearing mice were randomly divided into 7 groups (N=5 for each group) respectively and subject to dose/regimen-finding study. They were treated with tail vein injection of (1) Cisplatin (2 mg/kg), (2) Carboplatin (25 mg/kg), (3) Cisplatin (5 mg/kg) and Vinorelbine (5 mg/kg) or (4) saline on day 0, 3, 6 and 9 (day 0 is designated as the day of dose started) (Sanjana et al., 2014, Nature Methods 11(8); 783-784). Tumor volume and body weight was closely monitored over time. After 16 days, the animals were sacrificed, with tumor removed, weighed and processed for molecular analysis. Mice were euthanized. The data were expressed as mean ± SD. Student’s t-test and one-way or two-way ANOVA was used to assess the significance of difference. A P value < 0.05 was considered significant.
A549 xenografts were resected on day 16, snap frozen in liquid nitrogen and stored in -80° C. until usage. All immunofluorescence staining was performed as previously described. Wang et al., Investig. Opthalmology Vis. Sci. 58, 3896 (2017). Briefly, tumors were embedded in Optimum Cutting Temperature (Tissue Tek, Torrance, CA, USA) and 16-µm-thick sections were obtained with a Leica CM3050 cryostat (Leica Microsystems, Buffalo Grove, IL, USA), and mounted on slides. Slides were fixed and incubated with blocking buffer for 1 hour at room temperature. Sections were then incubated with primary antibody (refer to Table 3 for more details), then washed in PBS and incubated with Alexa Fluor 488 labeled secondary antibody (1:200 dilution; Invitrogen, Grand Island, NY, USA) for 1 hour at RT. Sections were washed in PBS, then mounted with SlowFade Gold antifade mountant with DAPI (Invitrogen, Carlsbad, CA, USA). […]

[3] = test system: A549 Clone 2-23 cells; assay: MTS assay, A549 Neh2 KO Clone 2-23 treated with cisplatin; assay type: cell-based, human; conditions: cisplatin 1, 2, 3, 5, 10 uM, compared to wildtype A549
Description: (§3) The lung adenocarcinoma-derived cell line, A549, was used transfected with CRISPR/Cas9 designed to target exon 2 of NRF2 to create individual clones with random indel patterns. A total of three clones, 1-17, 2-16, and 2-23, were isolated and expanded. All three clones were collected for genomic DNA isolation and sanger sequencing to confirm the indels present. The DECODR program was used to deconvolute the sanger sequencing of each clone. The A549 cell line is polyploid and therefore, these clones contain 3 alleles of the NRF2 gene. Clone 1-17 contains -2, -2, -13 base pair deletions. Clone 2-16 contains a -1 base pair deletion across all alleles. Clone 2-23 contains two wildtype alleles and a -2 base pair deletion. A cell proliferation assay was used to assess the functionality of NRF2 after CRISPR targeting in combination with cisplatin treatment. The MTS assay was used to measure cellular proliferation of A549 wildtype, Clone 1-17, 2-16, and 2-23 cells. Cells were plated at the same concentration in each well and allowed to recover for 24 hours. […] Absorbance values for each clone and concentration were normalized by dividing the absorbance by the absorbance of each control well (0 µM). Normalized values for each clone at each concentration were then averaged across and standard error of the mean was calculated. […]

[4] = test system: wild type A549 cells; assay: MTS cell proliferation assay after drug exposure, wild type A549; assay type: cell-based, human; conditions: 72 hours
Description: as §1

[5] = test system: A549 Clone 2-16 cells; assay: MTS assay, A549 Neh2 KO Clone 2-16 treated with cisplatin; assay type: cell-based, human; conditions: cisplatin 1, 2, 3, 5, 10 uM, compared to wildtype A549
Description: as §3

[6] = test system: A549 Clone 1-17 cells; assay: MTS assay, A549 Neh2 KO Clone 1-17 treated with cisplatin; assay type: cell-based, human; conditions: cisplatin 1, 2, 3, 5, 10 uM, compared to wildtype A549
Description: as §3

[7] = test system: wild type A549 tumors; assay: Xenograft mouse model, wild type A549 tumors; assay type: in vivo
Description: as §2, with “They were treated with tail vein injection of (1) Cisplatin (2 mg/kg), (2) Carboplatin (25 mg/kg), (3) Cisplatin (5 mg/kg) and Vinorelbine (5 mg/kg) or (4) saline on day 0, 3, 6 and 9 (day 0 is designated as the day of dose started) (Sanjana et al., 2014, Nature Methods 11(8); 783-784).” left out, “After 16 days, the animals were sacrificed, with tumor removed, weighed and processed for molecular analysis. Mice were euthanized.” left out, “Student’s t-test and one-way or two-way ANOVA was used to assess the significance of difference. A P value < 0.05 was considered significant.” left out

[8] = increasing cisplatin with Vinorelbine at 5 µM
[9] = increasing dosages of cisplatin
[10] = 5 mg/kg cisplatin and 5 mg/kg vinorelbine in combination
[11] = cisplatin 2 mg/kg, tumors harvested day 16

Structure (SMILES) | chemosensitivity (MTS) ([1]; listed as Carboplatin) | tumor growth over 16 days ([2]; 25 mg/kg carboplatin tail vein) | sensitivity to cisplatin (MTS) [3] | cisplatin dosage above which elevated sensitivity is shown [4, 8] [µM] | dose dependence of cell proliferation (MTS) [4, 9] | resistance to drug (MTS proliferation) [4, 9] | sensitivity to cisplatin (MTS) [5] | sensitivity to cisplatin (MTS) [6] | concentrations with loss of proliferation ([1]; cisplatin) [µM] | chemosensitivity (MTS), combination [1, 8] | chemosensitivity (MTS) [1] | tumor growth over 16 days [2, 10] | tumor growth over 16 days ([2]; cisplatin 2 mg/kg tail vein, day 0, 3, 6, 9) | size of extracted tumors [2, 11] | tumor growth over 16 days [7, 10] | size of extracted tumors [7, 11]
N.N.O=C([O-])C1(C(=O)[O-])CCC1.[Pt+2] [carboplatin] | the cell killing response reflected what was observed in the experiments using cisplatin | reduction in tumor proliferation | – | – | – | – | – | – | – | – | – | – | – | – | – | –
N.N.[Cl][Pt][Cl] [cisplatin] | – | – | even higher resistance than the wildtype cells | > 5 | slight increase in cell proliferation up to 3 µM of cisplatin before proliferation is adversely affected at final concentrations of 5 µM and 10 µM | resistant to high dosages | relatively the same trend of sensitivity | relatively the same trend of sensitivity | ≥ 1 | increased sensitivity; also recorded: a heightened sensitivity is also observed | heightened sensitivity | cessation of tumor growth and maintenance of tumor size; also recorded: reduction in tumor proliferation | proliferation of the implanted cells is arrested; also recorded: reduction in tumor proliferation | smallest tumors | more sensitive to this combination of drugs | proliferate aggressively
